Test results published in PMC8692993, “PPARα and PPARγ activation is associated with pleural mesothelioma invasion but therapeutic inhibition is ineffective” (iScience, 2021).

Tests used:
[1] = tested on: HAP1, HAP1 PPARA KO, and HAP1 PPARG KO cell lines; assay: Scratch wound migration assay, HAP1 lines; type: cell-based, human; conditions: 1 and 10 μM
Experimental: (§1) Cells were harvested and seeded in Incucyte®ImageLock 96-well plates (Essen BioScience) at a density of 10 x 10^4 cells/mL overnight. A scratch wound was performed on the confluent cells with the 96-pin IncuCyte WoundMaker Tool (Essen BioScience). For migration assays, cells were washed with PBS once before adding 100 μL media with GW6471 at indicated concentrations. For matrigel invasion assays, cells were washed with PBS once before adding 50 μL of matrigel basement membrane matrix (FAL356231; Corning, NY, USA) at 8 mg/mL; lastly 100 μL media with GW6471 at indicated concentrations were added on top of the matrigel. Wounded cells were incubated in the IncuCyte ZOOM® at 37°C with 5% CO2. Data were analysed using the Incucyte® Scratch Wound Cell Migration Software Module and calculating the Relative Wound Density (%) (RWD) for both migration and invasion assays.

PPARα = molecular target: T1, PPARα (Homo sapiens, UniProt Q07869); assay: LanthaScreen TR-FRET binding assay, PPARα; conditions: 2 h incubation, mean of 3 replicates ± SEM
T1 sequence (Q07869 239-466 limits assumed): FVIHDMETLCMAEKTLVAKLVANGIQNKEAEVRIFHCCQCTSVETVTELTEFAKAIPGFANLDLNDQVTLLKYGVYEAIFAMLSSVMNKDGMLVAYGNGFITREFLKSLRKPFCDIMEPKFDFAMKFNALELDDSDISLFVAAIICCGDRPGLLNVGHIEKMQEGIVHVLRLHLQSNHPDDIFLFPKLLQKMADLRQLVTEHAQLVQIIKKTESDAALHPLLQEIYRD
Experimental: The LanthaScreen™ TR-FRET binding assay was performed following the manufacturer's guidelines (PV4894, Invitrogen) as follows, 20 mM stock solution of the ligand or control in DMSO were serially diluted using 100% DMSO to produce a range of concentrations from 100 μM to 1 pM. The test compound solutions were mixed with the reaction buffer in a 1 (ligand) in 10 (reaction buffer) dilution for a final 2X ligand concentration. This was mixed with the reaction components (glutathione S-transferase (GST)-PPPARγLBD (0.5 nM)/, terbium (Tb)-labelled anti-GST antibody (5 nM) and Fluormone pan-PPAR green (5 nM for PPARγ; 20 nM for PPARα) at room temperature in a ratio of 8 μLl 2X ligand solution: 4 μLl of 4XFluormone: and 4 μLl 4X GST-PPPARγLBD/terbium (Tb)-labelled anti-GST antibody to produce a final reaction mixture volume of 16 μL. The concentration of DMSO in the final reaction mixture was 5%. The reaction mixture was kept at room temperature for 2 h prior to recording the TR-FRET emission spectra using a CLARIOstar Plus microplate reader (BMG Labtech). […] Results are expressed as the ratio of fluorescence intensity at 520 nm (Fluormone emission) and 490 nm (Tb emission). […] For each compound three serial dilutions were prepared and measured separately. The IC50 and SEM values were determined using a sigmoidal dose-response equation with varying slope using GraphPad Prism.

AB1-Luc = assay: Intraperitoneal AB1-Luc mesothelioma model, bioluminescence and histology; type: in vivo, BALB/c mice; conditions: for Tumor growth (bioluminescence, average radiance): versus controls
Experimental: Cells were trypsinized and washed two times in phosphate buffer saline (PBS) and counted with trypan blue dye. For the SC tumour model, mice were shaved on the right-hand flank and inoculated with 5x10^5 AB1 or 1x10^6 AE17 cells suspended in 100 μL PBS. Tumour volume (mm^3) was monitored with callipers. For the IPL tumour model, mice were anaesthetised under continuous isofluorane and inoculated with 5 x 10^5 AB1 or 1 x 10^6 AE17 cells suspended in 200 μL PBS into the pleural space as previously described ([Lansley et al., 2015]) Tumour size was determined by weighting together the tumour with the lungs minus the weight of aged matched healthy lungs. For the IP tumour model, mice where inoculated in the intraperitoneal cavity on the right flank with 5x10^5 AB1-Luc cells suspended in 200 μL PBS. Tumour size was determined by in vivo imaging system (IVIS), see below. All mice were euthanized in accordance with animal ethics guidelines.
Female BALB/cJAusb mice (10–12 weeks) were inoculated IP with 5 x 10^5 AB1-Luc on their right flank. Mice were randomly allocated to the different groups on the first treatment day. Treatment with ABT + GW6471 or GW6471 alone started on day 4 after tumour inoculation. IP Injections and concentrations were used as previously described in the “Mouse pharmacokinetic studies” section in experimental model and subject details. Initial mouse weight was measured immediately before the first injection, and it was used to calculate weight change daily. Mice were dosed for a maximum of seven consecutive days. In vivo imaging system (IVIS) (see below) was performed on days 3 (before treatment), 7 (during treatment) and 11 (after treatment). Mice were euthanized on day 11 in accordance with animal ethics guidelines and organs were harvested for staining.
XenoLight D-Luciferin potassium salt (PerkinElmer, VIC, Australia) was used at a 150 mg/kg concentration dissolved in sterile PBS. Approximately 150 μL (15 mg/mL concentration) was injected subcutaneously per mouse. […]

[2] = tested on: VGE62 human mesothelioma cell line; assay: Matrigel invasion scratch assay; type: cell-based; conditions: VGE62, 0.5, 1, 10 μM, concentration-dependent, p <0.0001
Experimental: as §1

CCC(=O)NC[C@H](Cc1ccc(OCCc2nc(-c3ccccc3)oc2C)cc1)N/C(C)=C\C(=O)c1ccc(C(F)(F)F)cc1 [GW6471]
Effect on migration compared between PPARA KO, PPARG KO and wild-type cells [1]: not significantly different
In vitro migration ([1]; HAP1 lines): concentration-dependent effect on in vitro migration
IC50 (PPARα): 95.3 ± 42 nM
Tumor growth (bioluminescence, average radiance) (AB1-Luc; GW6471 10 mg/kg IP daily from day 4, with ABT 50 mg/kg pre-treatment (ABT + GW6471)): no significant effect on tumor growth
Tumor growth (bioluminescence, average radiance) (AB1-Luc; GW6471 10 mg/kg IP daily from day 4, without ABT): no significant effect on tumor growth
Mesothelioma invasion and proliferation in vivo (histology) (AB1-Luc; GW6471 with or without ABT, all mice showed invasion into intestine and pancreas): no impact on mesothelioma invasion and proliferation in vivo
Invasion into matrigel (relative wound density) [2]: significantly inhibited invasion
